Measured values reported in PubChem BioAssay (NCI).
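Step 1: Grow cells in 96-well plates. Step 2: Expose to compound for 48 hours at 5 concentrations. Step 3: Interpolate endpoints linearly; if unreached, use highest concentration. TGI: concentration producing complete growth inhibition.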

Tests used:
Assay in all cases: inhibition of tumour cell growth, NCI panel, 48 h
NCI-H226 lung = system: NCI-H226 lung
HT29 colon = system: HT29 colon
KM12 colon = system: KM12 colon
NCI/ADR-RES ovarian = system: NCI/ADR-RES ovarian
COLO 205 colon = system: COLO 205 colon
SK-OV-3 ovarian = system: SK-OV-3 ovarian
NCI-H23 lung = system: NCI-H23 lung
UO-31 renal = system: UO-31 renal
IGROV1 ovarian = system: IGROV1 ovarian
HL-60(TB) leukemia = system: HL-60(TB) leukemia
SF-295 CNS = system: SF-295 CNS
SR leukemia = system: SR leukemia
SW-620 colon = system: SW-620 colon
LOX IMVI melanoma = system: LOX IMVI melanoma
RPMI-8226 leukemia = system: RPMI-8226 leukemia
TK-10 renal = system: TK-10 renal
SN12C renal = system: SN12C renal
SNB-19 CNS = system: SNB-19 CNS
K-562 leukemia = system: K-562 leukemia
OVCAR-3 ovarian = system: OVCAR-3 ovarian
HOP-92 NSCLC = system: HOP-92 NSCLC
MALME-3M melanoma = system: MALME-3M melanoma
HCT-15 colon = system: HCT-15 colon
CCRF-CEM leukemia = system: CCRF-CEM leukemia
MDA-MB-435 = system: MDA-MB-435
MOLT-4 leukemia = system: MOLT-4 leukemia
M14 melanoma = system: M14 melanoma
OVCAR-4 ovarian = system: OVCAR-4 ovarian
CAKI-1 renal = system: CAKI-1 renal
MDA-MB-231 breast = system: MDA-MB-231 breast
NCI-H460 lung = system: NCI-H460 lung
A498 renal = system: A498 renal
SNB-75 CNS = system: SNB-75 CNS
MDA-N = system: MDA-N
BT-549 breast = system: BT-549 breast
SK-MEL-5 melanoma = system: SK-MEL-5 melanoma
MCF7 breast = system: MCF7 breast
U251 CNS = system: U251 CNS
HS 578T breast = system: HS 578T breast
SK-MEL-2 melanoma = system: SK-MEL-2 melanoma
HCT-116 colon = system: HCT-116 colon
DU-145 prostate = system: DU-145 prostate
UACC-62 melanoma = system: UACC-62 melanoma
PC-3 prostate = system: PC-3 prostate
OVCAR-8 ovarian = system: OVCAR-8 ovarian
HOP-62 NSCLC = system: HOP-62 NSCLC
OVCAR-5 ovarian = system: OVCAR-5 ovarian
RXF 393 renal = system: RXF 393 renal
UACC-257 melanoma = system: UACC-257 melanoma
SK-MEL-28 melanoma = system: SK-MEL-28 melanoma
HCC-2998 colon = system: HCC-2998 colon
SF-268 CNS = system: SF-268 CNS
EKVX NSCLC = system: EKVX NSCLC
SF-539 CNS = system: SF-539 CNS
NCI-H522 lung = system: NCI-H522 lung
A549 NSCLC = system: A549 NSCLC
786-0 renal = system: 786-0 renal
ACHN renal = system: ACHN renal

`CC(C)(C)[Si](C)(C)OCC1OC(n2cnc3c(N)ncnc32)C2OC(=S)OC12` (centres undefined) was tested, and the TGI (NCI-H226 lung) was over 100 µM, the TGI (HT29 colon) was over 100 µM and the TGI (KM12 colon) was over 100 µM. The TGI (NCI/ADR-RES ovarian) was 81.2 µM, the TGI (COLO 205 colon) was over 100 µM and the TGI (SK-OV-3 ovarian) was 97 µM. It also gave a TGI (NCI-H23 lung) of 73.3 µM, a TGI (UO-31 renal) of 78.3 µM and a TGI (IGROV1 ovarian) of over 100 µM. For the same compound, the TGI (HL-60(TB) leukemia) was over 100 µM, the TGI (SF-295 CNS) was over 100 µM and the TGI (SR leukemia) was over 100 µM. The TGI (SW-620 colon) was over 100 µM, the TGI (LOX IMVI melanoma) was over 100 µM and the TGI (RPMI-8226 leukemia) was over 100 µM. It also gave a TGI (TK-10 renal) of over 100 µM, a TGI (SN12C renal) of over 100 µM and a TGI (SNB-19 CNS) of over 100 µM. For the same compound, the TGI (K-562 leukemia) was over 100 µM, the TGI (OVCAR-3 ovarian) was 91.9 µM and the TGI (HOP-92 NSCLC) was over 100 µM. The TGI (MALME-3M melanoma) was 98.3 µM, the TGI (HCT-15 colon) was over 100 µM and the TGI (CCRF-CEM leukemia) was 59 µM. The TGI (MDA-MB-435) was 48.3 µM, the TGI (MOLT-4 leukemia) was 69.3 µM and the TGI (M14 melanoma) was over 100 µM. For the same compound, the TGI (OVCAR-4 ovarian) was over 100 µM, the TGI (CAKI-1 renal) was over 100 µM and the TGI (MDA-MB-231 breast) was over 100 µM. For the same compound, the TGI (NCI-H460 lung) was over 100 µM, the TGI (A498 renal) was over 100 µM and the TGI (SNB-75 CNS) was over 100 µM. The TGI (MDA-N) was 94 µM, the TGI (BT-549 breast) was 74.7 µM and the TGI (SK-MEL-5 melanoma) was 36.1 µM. The TGI (MCF7 breast) was 93.4 µM, the TGI (U251 CNS) was 68.2 µM and the TGI (HS 578T breast) was over 100 µM. For the same compound, the TGI (SK-MEL-2 melanoma) was 74.7 µM, the TGI (HCT-116 colon) was over 100 µM and the TGI (DU-145 prostate) was over 100 µM. It also gave a TGI (UACC-62 melanoma) of 77.8 µM, a TGI (PC-3 prostate) of over 100 µM and a TGI (OVCAR-8 ovarian) of over 100 µM. The TGI (HOP-62 NSCLC) was over 100 µM, the TGI (OVCAR-5 ovarian) was 86.6 µM and the TGI (RXF 393 renal) was over 100 µM. For the same compound, the TGI (UACC-257 melanoma) was over 100 µM and the TGI (SK-MEL-28 melanoma) was over 100 µM.

`Brc1ccc(C2=NCSC(c3ccc(Br)cc3)=N2)cc1` showed a TGI (NCI-H226 lung) of over 100 µM, a TGI (HT29 colon) of 86.3 µM and a TGI (HCC-2998 colon) of 51 µM. The TGI (KM12 colon) was over 100 µM, the TGI (SF-268 CNS) was over 100 µM and the TGI (NCI/ADR-RES ovarian) was over 100 µM. For the same compound, the TGI (COLO 205 colon) was over 100 µM, the TGI (SK-OV-3 ovarian) was over 100 µM and the TGI (NCI-H23 lung) was over 100 µM. It also gave a TGI (UO-31 renal) of 67.2 µM, a TGI (IGROV1 ovarian) of over 100 µM and a TGI (HL-60(TB) leukemia) of 34.8 µM. The TGI (SF-295 CNS) was over 100 µM, the TGI (SR leukemia) was 47.4 µM and the TGI (SW-620 colon) was over 100 µM. The TGI (LOX IMVI melanoma) was 70.9 µM, the TGI (RPMI-8226 leukemia) was 63.5 µM and the TGI (TK-10 renal) was 53.8 µM. For the same compound, the TGI (EKVX NSCLC) was 38.5 µM, the TGI (SN12C renal) was over 100 µM and the TGI (SNB-19 CNS) was over 100 µM. The TGI (K-562 leukemia) was over 100 µM, the TGI (SF-539 CNS) was 99.2 µM and the TGI (NCI-H522 lung) was 58.4 µM. It also gave a TGI (HOP-92 NSCLC) of over 100 µM, a TGI (A549 NSCLC) of over 100 µM and a TGI (MALME-3M melanoma) of over 100 µM. It also gave a TGI (HCT-15 colon) of over 100 µM, a TGI (MDA-MB-435) of over 100 µM and a TGI (MOLT-4 leukemia) of 48.6 µM. For the same compound, the TGI (M14 melanoma) was over 100 µM, the TGI (OVCAR-4 ovarian) was over 100 µM and the TGI (CAKI-1 renal) was over 100 µM. It also gave a TGI (MDA-MB-231 breast) of over 100 µM, a TGI (NCI-H460 lung) of 53.8 µM and a TGI (SNB-75 CNS) of 63.1 µM. It also gave a TGI (MDA-N) of 54.7 µM, a TGI (BT-549 breast) of over 100 µM and a TGI (SK-MEL-5 melanoma) of 64.5 µM. For the same compound, the TGI (MCF7 breast) was over 100 µM, the TGI (U251 CNS) was 53.3 µM and the TGI (HS 578T breast) was over 100 µM. It also gave a TGI (SK-MEL-2 melanoma) of 32.5 µM, a TGI (HCT-116 colon) of 59.2 µM and a TGI (786-0 renal) of 40.4 µM. The TGI (UACC-62 melanoma) was 29.8 µM, the TGI (PC-3 prostate) was 56.7 µM and the TGI (OVCAR-8 ovarian) was over 100 µM. The TGI (HOP-62 NSCLC) was over 100 µM, the TGI (OVCAR-5 ovarian) was over 100 µM and the TGI (RXF 393 renal) was 44.3 µM. For the same compound, the TGI (ACHN renal) was over 100 µM, the TGI (UACC-257 melanoma) was 71 µM and the TGI (SK-MEL-28 melanoma) was over 100 µM.
